Source: US12624018B1, “Inhibitors of RIPK2 and medical uses thereof” (Odyssey Therapeutics, Inc., priority 2022, dated 2026)

Target: T1, RIPK2 enzyme (Homo sapiens, UniProt O43353)
T1 construct: purchased Carna 09-128
Assay: RIPK2 inhibition (ADP-Glo Kinase Assay)
Assay type: biochemical
Details: RIPK2 5 nM, ATP 150 μM, MBP substrate, read-out: RIPK2 IC50
Summary of the method: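 Human RIPK2 (5 nM) preincubated with compound 30 min at room temperature in 50 mM HEPES pH 7.5, 10 mM MgCl2, 2 mM DTT, 1 mM EGTA, 0.01% Brij-35, 0.05% BSA; native swine MBP as substrate. ADP formed quantified by ADP-Glo luminescence; percent inhibition relative to DMSO and no-enzyme controls.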

T1 sequence (O43353 1-299 limits assumed): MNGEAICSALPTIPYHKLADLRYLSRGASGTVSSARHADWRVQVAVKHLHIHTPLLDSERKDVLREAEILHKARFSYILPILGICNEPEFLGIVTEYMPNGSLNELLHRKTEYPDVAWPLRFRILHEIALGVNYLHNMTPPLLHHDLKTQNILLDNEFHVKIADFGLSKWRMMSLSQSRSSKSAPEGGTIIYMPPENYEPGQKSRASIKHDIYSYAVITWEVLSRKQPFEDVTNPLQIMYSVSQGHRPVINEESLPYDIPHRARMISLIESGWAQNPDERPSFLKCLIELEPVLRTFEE

Row | SMILES | IC50 [nM]
1 | Cc1cc(CC(=O)Nc2cnn(C(C)(C)C)c2)ccc1Oc1ccnc2ccc(S(=O)(=O)CC3CCOC3)cc12 (single isomer, unassigned) [Compound 241, N-(1-(tert-butyl)-1H-pyrazol-4-yl)-2-(3-methyl-4-((6-(((tetrahydrofuran-3-yl)methyl)sulfonyl)quinolin-4-yl)oxy)phenyl)acetamide] | < 2.5
2 | Cc1nc(NC(=O)Cc2ncc(Oc3ncnc4ccc(F)cc34)cc2F)cc(C(C)(C)C)n1 [Compound 53, N-(6-(tert-butyl)-2-methylpyrimidin-4-yl)-2-(3-fluoro-5-((6-fluoroquinazolin-4-yl)oxy)pyridin-2-yl)acetamide] | 225
3 | Cc1c(Oc2ccnc3ccc(C(=O)N[C@H]4C[C@H](O)C4)cc23)ccc(CC(=O)Nc2cnn(C(C)(C)C)c2)c1F [Compound 401, 4-(4-(2-((1-(tert-butyl)-1H-pyrazol-4-yl)amino)-2-oxoethyl)-3-fluoro-2-methyl-phenoxy)-N-((1r,3r)-3-hydroxy-cyclobutyl) quinoline-6-carboxamide] | < 2.5
4 | CC(C)(C)n1cc(NC(=O)Cc2ccc(Oc3ccnc4ccc(S(C)(=O)=O)cc34)c(Cl)c2)cn1 [Compound 89, N-(1-(tert-butyl)-1H-pyrazol-4-yl)-2-(3-chloro-4-((6-(methylsulfonyl)quinolin-4-yl)oxy)phenyl)acetamide] | < 2.5
5 | CCOc1ccc2nccc(Oc3cnc(CC(=O)Nc4cnn(C(C)(C)C)c4)c(F)c3)c2c1 [Compound 48, N-(1-(tert-butyl)-1H-pyrazol-4-yl)-2-(5-((6-ethoxyquinolin-4-yl)oxy)-3-fluoropyridin-2-yl)acetamide] | 9.2
6 | Cc1cc(CC(=O)Nc2cnn(C(C)(C)C)c2)c(F)cc1Oc1ncnc2ccc(OC3CCN(C)CC3)cc12 [Compound 117, N-(1-(tert-butyl)-1H-pyrazol-4-yl)-2-(2-fluoro-5-methyl-4-((6-((1-methyl-piperidin-4-yl)oxy)quinazolin-4-yl)oxy)phenyl) acetamide] | < 2.5
7 | CC(C)(C)n1cc(NC(=O)Cc2ccc(Oc3ccnc4ccc(S(C)(=N)=O)cc34)cc2F)cn1 (single isomer, unassigned) [Compound 69, N-(1-(tert-butyl)-1H-pyrazol-4-yl)-2-(2-fluoro-4-((6-(S-methylsulfonimidoyl)quinolin-4-yl)oxy)phenyl)acetamide] | 6.9
8 | CCn1nc(NC(=O)Cc2ccc(Oc3ccnc4ccc(S(C)(=O)=O)cc34)cc2F)cc1C(C)C [Compound 148, N-(1-ethyl-5-isopropyl-1H-pyrazol-3-yl)-2-(2-fluoro-4-((6-(methylsulfonyl)quinolin-4-yl)oxy)phenyl)acetamide] | < 2.5
9 | CN1[C@@H]2CC[C@H]1C[C@@H](Oc1ccc3ncnc(Oc4cnc(CC(=O)Nc5cnn(C(C)(C)C)c5)c(F)c4)c3c1)C2 [Compound 62, N-(1-(tert-butyl)-1H-pyrazol-4-yl)-2-(3-fluoro-5-((6-(((1R,3r,5S)-8-methyl-8-azabicyclo [3.2.1]octan-3-yl)oxy)quinazolin-4-yl)oxy)pyridin-2-yl)acetamide] | 13.2
10 | CCS(=O)(=O)c1ccc2nccc(Oc3ccc(CC(=O)Nc4cnn(C(C)(C)C)c4)c(F)c3)c2c1 [Compound 130, N-(1-(tert-butyl)-1H-pyrazol-4-yl)-2-(4-((6-(ethylsulfonyl)quinolin-4-yl)oxy)-2-fluorophenyl)acetamide] | < 2.5
11 | Cc1cc(CC(=O)Nc2cnn(C(C)(C)C)c2)ccc1Oc1ccnc2cc(OC(F)F)c(S(C)(=O)=O)cc12 [Compound 218, N-(1-(tert-butyl)-1H-pyrazol-4-yl)-2-(4-((7-(difluoromethoxy)-6-(methylsulfonyl)quinolin-4-yl)oxy)-3-methylphenyl) acetamide] | < 2.5
12 | CN1CC[C@H](Oc2ccc3ncnc(Oc4cnc(CC(=O)Nc5cnn(C(C)(C)C)c5)c(F)c4)c3c2)C1 [Compound 59, (S)-N-(1-(tert-butyl)-1H-pyrazol-4-yl)-2-(3-fluoro-5-((6-((1-methylpyrrolidin-3-yl)oxy)quinazolin-4-yl)oxy)pyridin-2-yl)acetamide] | 41.5
13 | CC(C)(C)n1cc(NC(=O)Cc2ccc(Oc3ccnc4ccc(S(=O)(=O)N5CCNCC5)cc34)cc2F)cn1 [Compound 128, N-(1-(tert-butyl)-1H-pyrazol-4-yl)-2-(2-fluoro-4-((6-(piperazin-1-ylsulfonyl)quinolin-4-yl)oxy)phenyl)acetamide] | < 2.5

The next lines start with the values.

Row | IC50 [nM] | SMILES
14 | < 2.5 | Cc1cc(CC(=O)Nc2cnn(C(C)(C)C)c2)ccc1Oc1ccnc2ccc(OC3CCNCC3O)cc12 (racemic) [Compound 189, N-(1-(tert-butyl)-1H-pyrazol-4-yl)-2-(4-((6-((-3-hydroxy-piperidin-4-yl)oxy)quinolin-4-yl)oxy)-3-methylphenyl) acetamide]
15 | < 2.5 | CC(C)(C)n1cc(NC(=O)Cc2ccc(Oc3ccnc4ccc(S5(=O)=NCCCC5)cc34)cc2F)cn1 (centres unmarked) [Compound 67, N-(1-(tert-butyl)-1H-pyrazol-4-yl)-2-(2-fluoro-4-((6-(1-oxido-3,4,5,6-tetrahydro-1λ^6,2-thiazin-1-yl)quinolin-4-yl)oxy)phenyl)acetamide]
16 | < 2.5 | Cc1cc(CC(=O)Nc2cnn(C(C)(C)C)c2)ccc1Oc1ccnc2ccc(N3CCC(F)(F)C3=O)cc12 [Compound 325, N-(1-(tert-butyl)-1H-pyrazol-4-yl)-2-(4-((6-(3,3-difluoro-2-oxopyrrolidin-1-yl)quinolin-4-yl)oxy)-3-methylphenyl) acetamide]
17 | < 2.5 | CN=S(C)(=O)c1ccc2nccc(Oc3ccc(CC(=O)Nc4cnn(C(C)(C)C)c4)cc3C)c2c1 (centres unmarked) [Compound 77, N-(1-(tert-butyl)-1H-pyrazol-4-yl)-2-(4-((6-(N,S-dimethylsulfonimidoyl)quinolin-4-yl)oxy)-3-methylphenyl)acetamide]
18 | 5.2 | CC(C)(C)n1cc(NC(=O)Cc2ccc(Oc3ccnc4ccc(-n5ccccc5=O)cc34)cc2F)cn1 [Compound 157, N-(1-(tert-butyl)-1H-pyrazol-4-yl)-2-(2-fluoro-4-((6-(2-oxopyridin-1(2H)-yl)quinolin-4-yl)oxy)phenyl) acetamide]
19 | < 2.5 | COc1cc2nccc(Oc3cc(F)c(CC(=O)Nc4cnn(C(C)(C)C)c4)cc3C)c2cc1C(N)=O [Compound 436, 4-(4-(2-((1-(tert-butyl)-1H-pyrazol-4-yl)amino)-2-oxoethyl)-5-fluoro-2-methylphenoxy)-7-methoxyquinoline-6-carboxamide]
20 | < 2.5 | CCOc1cc2nccc(Oc3ccc(CC(=O)Nc4cnn(C(C)(C)C)c4)cc3C)c2cc1S(C)(=O)=O [Compound 217, N-(1-(tert-butyl)-1H-pyrazol-4-yl)-2-(4-((7-ethoxy-6-(methylsulfonyl)quinolin-4-yl)oxy)-3-methylphenyl) acetamide]
21 | < 2.5 | Cc1c(Oc2ccnc3ccc(S(=O)(=O)C4CC(N)C4)cc23)ccc(CC(=O)Nc2cnn(C(C)(C)C)c2)c1F (single isomer, unassigned) [Compound 287, 2-(4-((6-((-3-aminocyclobutyl)sulfonyl)quinolin-4-yl)oxy)-2-fluoro-3-methylphenyl)-N-(1-(tert-butyl)-1H-pyrazol-4-yl)acetamide]
22 | < 2.5 | Cc1cc(CC(=O)Nc2cnn(C(C)(C)C)c2)ccc1Oc1ccnc2ccc(OC3CCNC(C)C3)cc12 (racemic) [Compound 221, N-(1-(tert-butyl)-1H-pyrazol-4-yl)-2-(3-methyl-4-((6-((-2-methyl-piperidin-4-yl)oxy)quinolin-4-yl)oxy)phenyl) acetamide]
23 | 3.2 | CCS(=N)(=O)c1ccc2nccc(Oc3ccc(CC(=O)Nc4cnn(C(C)(C)C)c4)c(F)c3)c2c1 (centres unmarked) [Compound 73, N-(1-(tert-butyl)-1H-pyrazol-4-yl)-2-(4-((6-(ethylsulfonimidoyl)quinolin-4-yl)oxy)-2-fluorophenyl) acetamide]
24 | < 2.5 | COCCN(C)C(=O)c1ccc2nccc(Oc3ccc(CC(=O)Nc4cnn(C(C)(C)C)c4)c(F)c3C)c2c1 [Compound 343, 4-(4-(2-((1-(tert-butyl)-1H-pyrazol-4-yl)amino)-2-oxoethyl)-3-fluoro-2-methyl-phenoxy)-N-(2-methoxyethyl)-N-methyl-quinoline-6-carboxamide]
25 | < 2.5 | Cc1c(Oc2ccnc3ccc(C(=O)NC4CC(F)(F)C4)cc23)ccc(CC(=O)Nc2cnn(C(C)(C)C)c2)c1F [Compound 406, 4-(4-(2-((1-(tert-butyl)-1H-pyrazol-4-yl)amino)-2-oxoethyl)-3-fluoro-2-methylphenoxy)-N-(3,3-difluorocyclobutyl)quinoline-6-carboxamide]
26 | < 2.5 | CCNC(=O)c1ccc2nccc(Oc3ccc(CC(=O)Nc4cnn(C(C)(C)C)c4)c(F)c3C)c2c1 [Compound 338, 4-(4-(2-((1-(tert-butyl)-1H-pyrazol-4-yl)amino)-2-oxoethyl)-3-fluoro-2-methyl-phenoxy)-N-ethylquinoline-6-carboxamide]
27 | 3.2 | CN1CCC(Cc2ccc3nccc(Oc4cnc(CC(=O)Nc5cnn(C(C)(C)C)c5)c(F)c4)c3c2)CC1 [Compound 139, N-(1-(tert-butyl)-1H-pyrazol-4-yl)-2-(3-fluoro-5-((6-((1-methylpiperidin-4-yl)methyl)quinolin-4-yl)oxy)pyridin-2-yl)acetamide]
28 | < 2.5 | CNS(=O)(=O)c1ccc2nccc(Oc3ccc(CC(=O)Nc4cnn(C(C)(C)C)c4)c(F)c3C)c2c1 [Compound 268, N-(1-(tert-butyl)-1H-pyrazol-4-yl)-2-(2-fluoro-3-methyl-4-((6-(N-methylsulfamoyl)quinolin-4-yl)oxy)phenyl)acetamide]
29 | 2.5 | CC(C)(C)n1cc(NC(=O)Cc2ccc(Oc3ccnc4ccc(N5CCNCC5=O)cc34)cc2F)cn1 [Compound 155, N-(1-(tert-butyl)-1H-pyrazol-4-yl)-2-(2-fluoro-4-((6-(2-oxopiperazin-1-yl)quinolin-4-yl)oxy)phenyl) acetamide]
